Laboratory results taken from patent US9828338B2, “Carbamate derivatives of lactam based N-acylethanolamine acid amidase (NAAA) inhibitors” (The Regents of the University of California, priority 2013, dated 2017).
Read-outs that look alike come from different tables or passages of the source.

Biological target: T1, r-NAAA (Rattus norvegicus, UniProt Q5KTC7)
T1 construct: Lysosomal NAAA protein preparation was obtained by homogenizing male Sprague-Dawley rat lungs; tissue Charles River (animals); host or cells: male Sprague-Dawley rat lung, soluble lysosomal fraction
T1 sequence (Q5KTC7 34-362): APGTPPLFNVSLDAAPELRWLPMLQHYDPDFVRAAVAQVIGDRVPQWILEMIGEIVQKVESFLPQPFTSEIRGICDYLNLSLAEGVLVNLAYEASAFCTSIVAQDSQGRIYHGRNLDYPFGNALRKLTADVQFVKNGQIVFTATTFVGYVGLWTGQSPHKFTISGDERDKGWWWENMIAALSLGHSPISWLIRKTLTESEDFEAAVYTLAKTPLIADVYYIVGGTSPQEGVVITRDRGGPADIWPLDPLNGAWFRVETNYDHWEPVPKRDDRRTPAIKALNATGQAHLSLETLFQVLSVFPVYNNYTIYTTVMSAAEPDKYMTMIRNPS
Test: UPLC/MS r-NAAA assay
Type: biochemical
Details: for r-NAAA UPLC/MS assay (n.a.): @100 μM
Description: Lysosomal NAAA protein preparation was obtained by homogenizing male Sprague-Dawley rat lungs (Charles River) in 20 mM Tris-HCl buffer pH 7.4 containing 0.32M sucrose. […] Supernatants were then centrifuged at 12,000 xg for 30 min at 4° C. Pellets were then resuspended in PBS pH 7.4 and subjected to a freeze/thaw cycle at −80° C. The suspension was finally centrifuged at 105,000×g for 1 h at 4° C. The supernatant was then used in the enzymatic assay.
NAAA protein preparation was pre-incubated with various concentrations of test compounds or vehicle control in 100 mM NaH2PO4/Citrate buffer, 1% Triton-X, 3 mM DTT (pH 4.5) for 30 min at 37° C. Samples were then incubated with heptadecenoylethanolamide (50 μM, Avanti Polar Lipids) at 37° C. for 30 min. The reaction was terminated by addition of cold methanol containing heptadecanoic acid (NuCheck Prep) as internal standard. Samples were then analyzed by UPLC/MS (Acquity, Waters). […] The column temperature was 40° C. Electrospray ionization was in the negative mode, capillary voltage was 0.5 kV, cone voltage was […], desolvation temperature was 500° C. N2 was used as drying gas at a flow rate of 1000 L/hour and a temperature of 500° C. […] Calibration curves were generated using commercial heptadecenoic acid (NuCheck Prep) Inhibition of NAAA activity was calculated as reduction of heptadecenoic acid in the samples compared to vehicle controls. IC50 values were calculated by non-linear regression analysis of log [concentration]/inhibition curves using GraphPad Prism 5 (GraphPad Software Inc., CA—USA) applying a standard slope curve fitting.

[1] = read-out: r-NAAA UPLC/MS assay % inhib.
[2] = @ 30 μM, read-out: r-NAAA UPLC/MS assay % inhib.

| Structure (SMILES) | IC50 | further results |
| --- | --- | --- |
| O=C(N[C@H]1CNC1=O)OC1CCC(Cc2ccccc2)CC1 (mixture of isomers) [Example 7, (1s,4R) and (1r,4S)-(4-Benzylcyclohexyl)-N-[(3S)-2-oxoazetidin-3-yl]-carbamate] | 6.6 µM | – |
| CC(CCCCc1ccccc1)OC(=O)N[C@H]1CNC1=O (mixture of isomers) [Example 15, [(1S)- and (1R)-(1-Methyl-5-phenyl-pentyl)]-N-[(3S)-2-oxoazetidin-3-yl]-carbamate] | 3.9 µM | – |
| CCCCCCCOC(=O)N[C@@H]1CNC1=O [Example 2, Heptyl-N-[(3R)-2-oxoazetidin-3-yl]-carbamate] | 66 µM | – |
| O=C(N[C@H]1CNC1=O)OCCCCCc1ccccc1 [Example 3, 5-Phenylpentyl-N-[(3S)-2-oxoazetidin-3-yl]-carbamate] | 0.62 µM | – |
| O=C(N[C@@H]1CNC1=O)OCCCCCc1ccccc1 [Example 4, 5-Phenylpentyl-N-[(3R)-2-oxoazetidin-3-yl]-carbamate] | 18.7 µM | – |
| O=C(N[C@H]1CNC1=O)OC1CCC(=Cc2ccccc2)CC1 (stereo partly drawn) [Example 8, (R,E) and (S,Z)-(4-Benzylidenecyclohexyl)-N-[(3S)-2-oxoazetidin-3-yl]-carbamate] | 5.7 µM | – |
| O=C(N[C@H]1CNC1=O)OCC/C=C/c1ccccc1 [Example 11, [(E)-4-Phenylbut-3-enyl]-N-[(3S)-2-oxoazetidin-3-yl]-carbamate] | 6.62 µM | – |
| O=C(N[C@H]1CNC1=O)OCC/C=C\c1ccccc1 [Example 12, [(Z)-4-Phenylbut-3-enyl]-N-[(3S)-2-oxoazetidin-3-yl]-carbamate] | 1.6 µM | – |
| Cc1cccc(C)c1CCCCOC(=O)N[C@H]1CNC1=O [Example 14, 4-(2,6-Dimethylphenyl)-butyl-N-[(3S)-2-oxoazetidin-3-yl]-carbamate] | 8.1 µM | – |
| CC(C)(CCCCc1ccccc1)OC(=O)N[C@H]1CNC1=O [Example 16, (1,1-Dimethyl-5-phenyl-pentyl)-N-[(3S)-2-oxoazetidin-3-yl]-carbamate] | 8 µM | – |
| O=C(N[C@H]1CNC1=O)OCCCC1CCCCC1 [Example 18, 3-Cyclohexylpropyl-N-[(3S)-2-oxoazetidin-3-yl]-carbamate] | 0.04 µM | – |
| O=C(N[C@H]1CNC1=O)OCCCCCC1CCCCC1 [Example 19, 5-Cyclohexylpentyl-N-[(3S)-2-oxoazetidin-3-yl]-carbamate] | 0.058 µM | – |
| O=C(N[C@H]1CNC1=O)OCCCCC1CCCC1 [Example 20, 4-Cyclopentylbutyl-N-[(3S)-2-oxoazetidin-3-yl]-carbamate] | 0.048 µM | – |
| CCCCCCOC(=O)N[C@H]1CNC1=O [Example 23, Hexyl-N-[(3S)-2-oxoazetidin-3-yl]-carbamate] | 1.6 µM | – |
| CCCCCCCCOC(=O)N[C@H]1CNC1=O [Example 24, Octyl-N-[(3S)-2-oxoazetidin-3-yl]-carbamate] | 0.016 µM | – |
| CCCCc1ccc(COC(=O)N[C@H]2CNC2=O)cc1 [Example 26, (4-Butylphenyl)-methyl-N-[(3S)-2-oxoazetidin-3-yl]-carbamate] | 0.046 µM | – |
| Cc1ccccc1CCCCOC(=O)N[C@H]1CNC1=O [Example 29, 4-(o-Tolyl)-butyl-N-[(3S)-2-oxoazetidin-3-yl]-carbamate] | 2 µM | – |
| O=C(N[C@H]1CNC1=O)OCc1cccc(Cc2ccccc2)c1 [Example 32, (3-Benzylphenyl)-methyl-N-[(3S)-2-oxoazetidin-3-yl]-carbamate] | 1.2 µM | – |
| O=C(N[C@H]1CNC1=O)Oc1ccc(Cc2ccccc2)cc1 [Example 33, (4-Benzylphenyl)-N-[(3S)-2-oxoazetidin-3-yl]-carbamate] | 21 µM | – |
| O=C(N[C@H]1CNC1=O)OCc1ccccc1C1CCCCC1 [Example 35, (2-Cyclohexylphenyl)-methyl-N-[(3S)-2-oxoazetidin-3-yl]-carbamate] | – | r-NAAA UPLC/MS assay (n.a.): n.a. (n.a. = <10% inhib. @100 μM) |
| O=C(N[C@H]1CNC1=O)OCCc1ccc(-c2ccccc2)cc1 [Example 36, 2-(4-Phenylphenyl)-ethyl-N-[(3S)-2-oxoazetidin-3-yl]-carbamate] | 5.05 µM | – |

| Structure (SMILES) | IC50 | further results |
| --- | --- | --- |
| O=C(N[C@H]1CNC1=O)OCCCCc1ccccn1 [Example 37, 4-(2-Pyridyl)-butyl-N-[(3S)-2-oxoazetidin-3-yl]-carbamate] | – | r-NAAA UPLC/MS assay (n.a.): n.a. (n.a. = <10% inhib. @100 μM) |
| O=C(N[C@H]1CNC1=O)OCCCCc1ccc(C(F)(F)F)cc1 [Example 38, 4-[4-(Trifluoromethyl)-phenyl]-butyl-N-[(3S)-2-oxoazetidin-3-yl]-carbamate] | 0.67 µM | – |
| CCc1ccc(CCCCOC(=O)N[C@H]2CNC2=O)cc1 [Example 39, 4-(4-Ethylphenyl)-butyl-N-[(3S)-2-oxoazetidin-3-yl]-carbamate] | 1 µM | – |
| Cc1ccccc1-c1ccc(COC(=O)N[C@H]2CNC2=O)cc1 [Example 40, [4-(o-Tolyl)-phenyl]-methyl-N-[(3S)-2-oxoazetidin-3-yl]-carbamate] | 0.51 µM | – |
| Cc1ccccc1-c1ccc(COC(=O)N[C@H]2CNC2=O)cc1C [Example 41, [3-Methyl-4-(o-tolyl)-phenyl]-methyl-N-[(3S)-2-oxoazetidin-3-yl]-carbamate] | 0.91 µM | – |
| Cc1cccc(-c2ccc(COC(=O)N[C@H]3CNC3=O)cc2C)c1 [Example 42, [3-Methyl-4-(m-tolyl)-phenyl]-methyl-N-[(3S)-2-oxoazetidin-3-yl]-carbamate] | 0.62 µM | – |
| Cc1cccc(-c2ccc(COC(=O)N[C@H]3CNC3=O)cc2)c1 [Example 43, [4-(m-Tolyl)-phenyl]-methyl-N-[(3S)-2-oxoazetidin-3-yl]-carbamate] | 0.87 µM | – |
| Cc1cc(COC(=O)N[C@H]2CNC2=O)ccc1-c1ccccc1 [Example 44, (3-Methyl-4-phenyl-phenyl)-methyl-N-[(3S)-2-oxoazetidin-3-yl]-carbamate] | 0.59 µM | – |
| O=C(N[C@H]1CNC1=O)OCc1ccc(-c2ccncc2)cc1 [Example 45, [4-(4-Pyridyl)-phenyl]-methyl-N-[(3S)-2-oxoazetidin-3-yl]-carbamate] | – | inhibition at 30 µM [1]: 48% |
| O=C(N[C@H]1CNC1=O)OCCCCC1CCOCC1 [Example 48, 4-Tetrahydropyran-4-yl-butyl-N-[(3S)-2-oxoazetidin-3-yl]-carbamate] | 12.6 µM | – |
| O=C(N[C@H]1CNC1=O)OCCOCC1CCCCC1 [Example 49, 2-(Cyclohexylmethoxy)-ethyl-N-[(3S)-2-oxoazetidin-3-yl]-carbamate] | 1.65 µM | – |
| O=C(N[C@H]1CNC1=O)OCCOCCC1CCCCC1 [Example 51, 2-(2-Cyclohexylethoxy)-ethyl-N-[(3S)-2-oxoazetidin-3-yl]-carbamate] | 0.77 µM | – |
| O=C(N[C@H]1CNC1=O)OCc1ccc(C2CCCC2)cc1 [Example 55, (4-Cyclopentylphenyl)-methyl-N-[(3S)-2-oxoazetidin-3-yl]-carbamate] | 0.031 µM | – |
| CC(C)(C)c1ccc(COC(=O)N[C@H]2CNC2=O)cc1 [Example 57, (4-tert-Butylphenyl)-methyl-N-[(3S)-2-oxoazetidin-3-yl]-carbamate] | 0.18 µM | – |
| O=C(N[C@H]1CNC1=O)OCc1cccc(-c2ccccc2)c1 [Example 62, (3-Phenylphenyl)-methyl-N-[(3S)-2-oxoazetidin-3-yl]-carbamate] | – | inhibition at 30 µM [1]: 45% |
| O=C(N[C@H]1CNC1=O)OCc1ccc(OC2CCCCC2)cc1 [Example 64, [4-(Cyclohexoxy)-phenyl]-methyl-N-[(3S)-2-oxoazetidin-3-yl]-carbamate] | 0.16 µM | – |
| C#CCCOC(=O)N[C@H]1CNC1=O [Example 65, But-3-ynyl-N-[(3S)-2-oxoazetidin-3-yl]-carbamate] | – | inhibition at 30 µM [2]: 20% |
| C[C@@H]1NC(=O)[C@H]1NC(=O)OCCCCCc1ccccc1 [Example 75, 5-Phenylpentyl-N-[(2S,3S)-2-methyl-4-oxo-azetidin-3-yl]-carbamate] | 2.8 µM | – |
| C[C@H]1NC(=O)[C@H]1NC(=O)OCc1ccc(-c2ccccc2)cc1 [Example 77, (4-Phenylphenyl)-methyl-N-[(2R,3S)-2-methyl-4-oxo-azetidin-3-yl]-carbamate] | – | r-NAAA UPLC/MS assay (n.a.): n.a. (n.a. = <10% inhib. @100 μM) |
| C[C@H]1NC(=O)[C@H]1NC(=O)OCc1ccc(C2CCCCC2)cc1 [Example 78, (4-Cyclohexylphenyl)-methyl-N-[(2R,3S)-2-methyl-4-oxo-azetidin-3-yl]-carbamate] | – | inhibition at 100 µM [1]: 55% |
| C[C@H]1NC(=O)[C@H]1NC(=O)OCCCCCc1ccccc1 [Example 79, 5-Phenylpentyl-N-[(2R,3S)-2-methyl-4-oxo-azetidin-3-yl]-carbamate] | – | inhibition at 30 µM [2]: 35% |
